Data as given in the supplement of paper PMC10883282.

Experiments:
Test in all cases: relative viability vs DMSO control (72 h) (fraction); higher = more viable cells
A204 = test system: A204
Outline: (§1)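 ATPLite readings, expressed as percent growth and averaged over up to triplicate wells, provided relative viability. Before reading, sarcoma cell lines seeded in 384-well plates to reach 80–90% confluence received 2.5 µl of serially diluted compound after 24 h, from source plates of 10 mM to 0.0002 mM. Plates were held 72 h at 37 °C, 5% CO2, with 0.1% DMSO as vehicle and a 5 µM positive control. The data were rescaled to 1 for full and 0 for none.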

G401 = test system: G401
Outline: as §1

HS729 = test system: HS729
Outline: as §1

HT1080 = test system: HT1080
Outline: as §1

KHOS-NP = test system: KHOS-NP
Outline: as §1

MES-SA = test system: MES-SA
Outline: as §1

COC(=O)N[C@@H](C)CNc1nccc(-c2cn(C(C)C)nc2-c2cc(Cl)cc(NS(C)(=O)=O)c2F)n1 [Encorafenib]
relative viability
Conditions	A204	G401	HS729	HT1080	KHOS-NP	MES-SA
0.00017 µM	0.99	0.975	1.069	1.06	1.01	0.98
0.00051 µM	0.991	1.01	1.077	1.09	1.01	0.944
0.00152 µM	1	0.9948	1.07	1.07	1.03	1
0.00457 µM	0.982	1.01	0.993	1.08	1.02	0.985
0.01372 µM	0.973	1.02	0.994	1.09	1.01	0.958
0.04115 µM	0.988	1.06	0.995	1.08	0.99	1.01
0.1235 µM	1	1.04	1.04	1.06	1.03	0.998
0.3704 µM	0.96	1.01	0.975	1.08	0.984	0.972
1.111 µM	0.838	0.841	0.821	0.885	0.851	0.714
3.333 µM	0.602	0.653	0.69	0.715	0.528	0.461
10 µM	0.574	0.5834	0.719	0.765	0.435	0.547
